According to patent US10017480B2, “Compounds having a selective PDE4D inhibiting activity” (UNIVERSITÂ DEGLI STUDI DI GENOVA, priority 2014, dated 2018):
Marks after values point to notes of the source that are not given here.

Assays:
PDE4D3 = PDE4D3 (Homo sapiens, UniProt Q08499); experiment: PDE4D3 enzyme inhibition (IMAP); type: biochemical; details: for PDE4D3 % inib at 10 μM: in duplicate; for IC50: five concentrations 10^−8-10^−4 M
Protocol: (§1) Compound's evaluation on PDE4D3, PDE4A4, PDE4B2 and PDE4C2 enzyme assays were performed by Scottish Biomedical (Glasgow, Scotland, UK) using recombinant human PDE enzymes expressed in a baculoviral system. The preliminary screening assays were performed by the IMAP technology (Molecular Devices), which is based on the high affinity binding of phosphate by immobilized metal coordination complexes on nanoparticles. The binding reagent complexes with phosphate groups on nucleotide monophosphate generated from cyclic nucleotides (cAMP) through phosphodiesterases. With fluorescence polarization detection, binding causes a change in the rate of the molecular motion of the phosphate bearing molecule and results in an increase in the fluorescence polarization value observed for the fluorescent label attached to the substrate. […] All compounds were solved in DMSO at 10^−2 M concentration and then diluted with water to the final suitable concentrations. All synthesized compounds were tested preliminary on PDE4D3 at 10^−5 M concentration, in duplicate. Results are expressed as a percent inhibition of control activity (see table 1).
IC50 values are reported at μM concentration in table 1. […] The results are reported (as percent of inhibition at 10 μM concentration) in Table 1.

PDE4A4 = PDE4A4 (Homo sapiens, UniProt P27815); experiment: PDE4A4 enzyme inhibition (IMAP); type: biochemical
Chain of PDE4A4 (P27815 whole entry): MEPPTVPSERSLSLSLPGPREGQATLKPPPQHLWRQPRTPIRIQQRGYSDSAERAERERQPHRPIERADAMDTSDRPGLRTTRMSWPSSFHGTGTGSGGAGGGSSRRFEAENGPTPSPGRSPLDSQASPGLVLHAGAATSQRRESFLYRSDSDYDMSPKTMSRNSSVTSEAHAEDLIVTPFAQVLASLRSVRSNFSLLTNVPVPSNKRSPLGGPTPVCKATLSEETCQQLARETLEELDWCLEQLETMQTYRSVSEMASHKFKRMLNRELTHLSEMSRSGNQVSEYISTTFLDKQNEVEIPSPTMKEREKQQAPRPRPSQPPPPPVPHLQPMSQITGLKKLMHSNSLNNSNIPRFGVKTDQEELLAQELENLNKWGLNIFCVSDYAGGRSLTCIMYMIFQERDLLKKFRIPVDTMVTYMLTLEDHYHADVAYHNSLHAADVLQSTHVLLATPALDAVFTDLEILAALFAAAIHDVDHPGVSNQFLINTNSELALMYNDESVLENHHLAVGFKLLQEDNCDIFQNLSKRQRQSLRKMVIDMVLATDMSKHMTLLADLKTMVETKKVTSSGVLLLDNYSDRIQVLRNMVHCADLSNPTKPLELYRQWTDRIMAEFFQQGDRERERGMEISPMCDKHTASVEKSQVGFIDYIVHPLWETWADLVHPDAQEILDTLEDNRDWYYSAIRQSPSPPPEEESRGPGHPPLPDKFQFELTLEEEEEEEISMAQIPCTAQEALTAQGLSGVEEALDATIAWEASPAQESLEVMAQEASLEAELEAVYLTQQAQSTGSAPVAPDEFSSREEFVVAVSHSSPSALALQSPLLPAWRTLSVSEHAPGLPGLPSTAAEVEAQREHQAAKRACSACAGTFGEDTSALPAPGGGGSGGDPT
Protocol: as §1
(§2) The IC50 values obtained for the reference compounds are within accepted limits of historic averages obtained (0.5 log unit). IC50 values are reported at μM concentration in table 1. […] The results are reported (as percent of inhibition at 10 μM concentration) in Table 1.

PDE4B2 = biological target: T1, PDE4B2 (Homo sapiens, UniProt Q07343); experiment: PDE4B2 enzyme inhibition (IMAP); type: biochemical
T1 construct: purchased Scottish Biomedical (Glasgow, Scotland, UK); host or cells: baculoviral system
T1 sequence (Q07343 1-564 isoform Q07343-2): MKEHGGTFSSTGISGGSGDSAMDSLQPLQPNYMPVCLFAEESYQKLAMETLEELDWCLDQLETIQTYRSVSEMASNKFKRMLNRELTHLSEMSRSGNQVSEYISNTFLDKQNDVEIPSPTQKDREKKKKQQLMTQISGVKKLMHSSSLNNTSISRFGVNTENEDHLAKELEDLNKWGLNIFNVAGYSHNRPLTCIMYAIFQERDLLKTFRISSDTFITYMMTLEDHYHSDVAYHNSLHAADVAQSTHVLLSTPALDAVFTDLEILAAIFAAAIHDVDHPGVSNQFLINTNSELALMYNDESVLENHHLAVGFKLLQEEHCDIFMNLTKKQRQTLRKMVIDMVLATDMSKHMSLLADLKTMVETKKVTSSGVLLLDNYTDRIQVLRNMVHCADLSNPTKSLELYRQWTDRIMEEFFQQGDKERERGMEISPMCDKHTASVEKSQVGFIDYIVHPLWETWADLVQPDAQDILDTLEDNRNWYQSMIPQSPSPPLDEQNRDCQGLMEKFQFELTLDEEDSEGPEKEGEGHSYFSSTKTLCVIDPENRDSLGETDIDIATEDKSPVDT
Protocol: as §1, §2

PDE4C2 = biological target: T2, PDE4C2 (Homo sapiens, UniProt Q08493); experiment: PDE4C2 enzyme inhibition (IMAP); type: biochemical
T2 construct: purchased Scottish Biomedical (Glasgow, Scotland, UK); host or cells: baculoviral system
T2 sequence (Q08493 107-712): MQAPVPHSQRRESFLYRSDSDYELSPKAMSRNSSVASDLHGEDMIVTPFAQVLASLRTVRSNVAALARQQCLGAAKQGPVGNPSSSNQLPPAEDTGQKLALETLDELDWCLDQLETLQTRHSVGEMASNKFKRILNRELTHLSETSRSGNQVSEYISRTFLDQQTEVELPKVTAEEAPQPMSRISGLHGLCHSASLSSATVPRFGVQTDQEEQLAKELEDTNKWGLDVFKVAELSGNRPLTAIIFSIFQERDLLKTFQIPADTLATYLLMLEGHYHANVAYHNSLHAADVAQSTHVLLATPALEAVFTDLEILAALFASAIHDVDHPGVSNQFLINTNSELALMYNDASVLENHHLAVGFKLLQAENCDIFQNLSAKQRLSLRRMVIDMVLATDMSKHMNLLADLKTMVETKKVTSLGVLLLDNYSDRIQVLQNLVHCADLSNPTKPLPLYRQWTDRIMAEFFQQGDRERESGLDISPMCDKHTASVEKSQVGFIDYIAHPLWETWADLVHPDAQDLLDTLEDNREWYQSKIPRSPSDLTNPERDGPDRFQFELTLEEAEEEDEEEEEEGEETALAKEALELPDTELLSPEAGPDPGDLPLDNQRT
Protocol: as §1, §2

PDE4D1 = PDE4D1 (Homo sapiens, UniProt Q08499); experiment: PDE4D1 enzyme inhibition (IMAP); type: biochemical
Chain of PDE4D1 (Q08499 1-584 isoform Q08499-4): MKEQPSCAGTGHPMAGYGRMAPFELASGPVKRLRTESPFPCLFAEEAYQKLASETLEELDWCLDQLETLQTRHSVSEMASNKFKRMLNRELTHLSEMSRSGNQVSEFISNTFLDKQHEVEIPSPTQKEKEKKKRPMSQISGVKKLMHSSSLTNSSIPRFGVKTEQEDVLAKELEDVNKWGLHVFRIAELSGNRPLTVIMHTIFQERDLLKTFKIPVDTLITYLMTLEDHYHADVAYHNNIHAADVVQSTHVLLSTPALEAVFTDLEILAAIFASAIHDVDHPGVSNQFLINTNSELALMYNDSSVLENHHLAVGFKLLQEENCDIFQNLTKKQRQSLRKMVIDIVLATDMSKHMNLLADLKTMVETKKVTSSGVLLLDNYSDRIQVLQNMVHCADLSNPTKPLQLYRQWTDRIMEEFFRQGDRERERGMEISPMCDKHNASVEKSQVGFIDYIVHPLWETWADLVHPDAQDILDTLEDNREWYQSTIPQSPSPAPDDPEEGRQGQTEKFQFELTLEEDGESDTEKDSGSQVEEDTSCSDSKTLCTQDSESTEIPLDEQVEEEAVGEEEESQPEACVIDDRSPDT

PDE4D2 = PDE4D2 (Homo sapiens, UniProt Q08499); experiment: PDE4D2 enzyme inhibition (IMAP); type: biochemical
Chain of PDE4D2 (Q08499 303-809 limits assumed): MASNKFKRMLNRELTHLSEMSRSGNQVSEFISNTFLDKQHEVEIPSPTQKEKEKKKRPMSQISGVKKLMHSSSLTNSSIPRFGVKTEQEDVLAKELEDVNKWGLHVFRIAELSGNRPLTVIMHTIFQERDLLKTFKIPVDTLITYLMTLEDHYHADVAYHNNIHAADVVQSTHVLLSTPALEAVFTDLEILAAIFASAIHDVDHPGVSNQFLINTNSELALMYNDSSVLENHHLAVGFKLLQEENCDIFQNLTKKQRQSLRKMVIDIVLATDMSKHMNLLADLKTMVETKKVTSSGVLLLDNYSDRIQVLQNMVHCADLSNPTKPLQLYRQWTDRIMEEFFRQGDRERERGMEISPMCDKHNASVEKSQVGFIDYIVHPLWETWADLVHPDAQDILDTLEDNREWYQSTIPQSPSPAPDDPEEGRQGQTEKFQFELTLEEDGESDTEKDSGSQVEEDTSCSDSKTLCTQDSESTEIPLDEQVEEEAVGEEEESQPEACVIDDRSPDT

[1] = Cytotoxicity, lactate-dehydrogenase release; type: cell-based; details: human, HTLA human neuronal cells
Protocol: To evaluate the preliminary toxic profile of the molecule XVIIIa, we performed cytotoxicity and genotoxicity assays on human neuronal cells (HTLA). For the cytotoxic potential, we analyzed the lactate-dehydrogenase release in cells exposed for 24 hours to high concentrations (100 μM) of XVIIIa or GEBR-7b (lead compound—Bruno et al, Br. J. Pharm., 2011, 164:2054).

HTLA cells = experiment: Genotoxicity, Western blot of γ-H2AX; type: cell-based, human; details: 100 μM
Text: To evaluate the genotoxic potential of XVIIIa and GEBR-7b, we analyzed the phosphorylation of the chromatin-bound histone H2AX (γ-H2AX), which is a quantitative marker for the DNA damage response at the site of double-strand breaks.
The H2AX signal represents the internal loading control.

[2] = system: spatial object memory performance; experiment: OLT dose-response experiment; type: in vivo; details: for d2 (discrimination performance): 24 h interval, mean (SEM)
spatial working memory = experiment: Y-maze continuous alternation task; type: in vivo; details: y-maze 6 min, vehicle 60.36
Protocol: Working memory function is given by the percentage of alternations made while exploring the y-maze for 6 min. No animals were excluded from the statistical analysis.
One-sample t-tests were performed to compare every condition to 50% alternations, i.e. chance level. […] FIG. 7 gives a graphical overview of the Y-maze alternation performance.

[3] = system: α2-adrenoceptor-mediated anesthesia; experiment: Ketamine/xylazine induced α2-adrenoceptor-mediated anesthesia test (emesis surrogate); type: in vivo, mice; details: for Time anesthetized: relative to vehicle (set at 100%)
Protocol: A shorter anesthesia time than that of the vehicle condition would implicate emetic-like effects. Anesthesia time was calculated relatively to the vehicle condition, which itself was set at 100%, to control for repeated exposure to the test.

[4] = system: forskolin (FSK)-induced cAMP in neuronal cultured cells; experiment: In vitro cAMP-enhancing potential (EIA); details: 100 μM, without FSK
[5] = Pharmacokinetic analysis, plasma and brain; details: male BALB/c mice, 10 mg/kg subcutaneously

Chain of PDE4D3 (Q08499 1-673 isoform Q08499-2): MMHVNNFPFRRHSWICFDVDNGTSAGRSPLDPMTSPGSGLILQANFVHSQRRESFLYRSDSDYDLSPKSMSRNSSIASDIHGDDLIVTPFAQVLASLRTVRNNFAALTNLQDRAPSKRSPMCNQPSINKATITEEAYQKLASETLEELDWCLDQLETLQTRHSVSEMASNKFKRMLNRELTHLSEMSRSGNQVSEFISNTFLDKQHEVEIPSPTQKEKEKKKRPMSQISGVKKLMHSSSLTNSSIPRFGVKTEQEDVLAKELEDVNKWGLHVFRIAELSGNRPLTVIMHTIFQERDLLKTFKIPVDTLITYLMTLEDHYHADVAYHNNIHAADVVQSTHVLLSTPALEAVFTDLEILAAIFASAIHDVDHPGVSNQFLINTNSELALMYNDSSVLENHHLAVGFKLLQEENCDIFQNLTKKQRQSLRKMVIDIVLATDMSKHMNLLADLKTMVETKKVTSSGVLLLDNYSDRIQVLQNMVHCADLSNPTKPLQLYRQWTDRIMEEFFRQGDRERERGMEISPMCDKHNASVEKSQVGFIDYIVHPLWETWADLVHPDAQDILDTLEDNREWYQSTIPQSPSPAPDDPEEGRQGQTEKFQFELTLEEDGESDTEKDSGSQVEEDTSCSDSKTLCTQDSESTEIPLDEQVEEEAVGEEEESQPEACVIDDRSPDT

For `COc1ccc(C2=NOC(CC(=O)N3CC(C)OC(C)C3)C2)cc1OC1CCCC1` (stereo not shown) [XIVb, 4-({3-[3-(Cyclopentiloxy)-4-methoxyphenyl]-4,5-dihydroisoxazol-5-yl}acetil) 2,6-dimethylmorpholine], the “PDE4D3 % inib at 10 μM” value (PDE4D3) was 51%, the IC50 (PDE4D3) was 5580 nM and the “PDE4A4 % inib at 10 μM” value (PDE4A4) was 45%. For the same molecule, the “PDE4B2 % inib at 10 μM” value (PDE4B2) was 27%, the “PDE4C2 % inib at 10 μM” value (PDE4C2) was 23% and the melting point was 104 to 105 °C.

In the case of `COc1ccc(C2=NOC(CC(=O)N3CCCC3)C2)cc1OC1CCCC1` (stereo not shown) [XIVd, 3-[3-(Cyclopentyloxy)-4-methoxyphenyl]-5-(2-oxo-2-pyrrolidin-1-ylethyl)-4,5-dihydroisoxazole], the “PDE4D3 % inib at 10 μM” value (PDE4D3) is reported as 57%, the IC50 (PDE4D3) is reported as 1220 nM and the “PDE4A4 % inib at 10 μM” value (PDE4A4) is reported as 66%. The “PDE4B2 % inib at 10 μM” value (PDE4B2) was 59% and the “PDE4C2 % inib at 10 μM” value (PDE4C2) was 47%.

For `COc1ccc(C2=NOC(CC(=O)N(CCO)CCO)C2)cc1OC1CCCC1` (stereo not shown) [XIVg, 2-{3-[3-(Cyclopentyloxy)-4-methoxyphenyl]-4,5-dihydroisoxazol-5-yl}-N,N-bis(2-hydroxyethyl)acetamide], the “PDE4D3 % inib at 10 μM” value (PDE4D3) was 65%, the IC50 (PDE4D3) was 1110 nM and the “PDE4A4 % inib at 10 μM” value (PDE4A4) was 69%. The “PDE4B2 % inib at 10 μM” value (PDE4B2) was 68%, the “PDE4C2 % inib at 10 μM” value (PDE4C2) was 40% and the melting point was 136 to 138 °C.

In the case of `COc1ccc(-c2ccn(CC(O)CN3CC(C)OC(C)C3)n2)cc1OC1CCCC1` (stereo not shown) [XVIIIb, 1-{3-[3-(Cyclopentyloxy)-4-methoxyphenyl]-1H-pyrazol-1-yl}-3-(2,6-dimethylmorpholin-4-yl)propan-2-ol dihydrocloride], the “PDE4D1 % inib at 10 μM” value (PDE4D1) is reported as 77%, the “PDE4D2 % inib at 10 μM” value (PDE4D2) is reported as 75% and the “PDE4D3 % inib at 10 μM” value (PDE4D3) is reported as 78%. The IC50 (PDE4D3) was 6000 nM, the IC50 (PDE4A4) was 120 nM and the “PDE4A4 % inib at 10 μM” value (PDE4A4) was 52%. The IC50 (PDE4B2) was 460 nM, the “PDE4B2 % inib at 10 μM” value (PDE4B2) was 53.0% and the “PDE4C2 % inib at 10 μM” value (PDE4C2) was 45%.

In the case of `COc1ccc(-c2cc(C(O)CN3CC(C)OC(C)C3)on2)cc1OC1CCCC1` (stereo not shown) [XVIb, 1-{3-[3-(Cyclopentyloxy)-4-methoxyphenyl]isoxazol-5-yl}-2-(2,6-dimethylmorpholin-4-yl)ethanol], the “PDE4D1 % inib at 10 μM” value (PDE4D1) is reported as 2%, the “PDE4D2 % inib at 10 μM” value (PDE4D2) is reported as 3% and the “PDE4D3 % inib at 10 μM” value (PDE4D3) is reported as 15%. For the same molecule, the “PDE4A4 % inib at 10 μM” value (PDE4A4) was 0%, the “PDE4B2 % inib at 10 μM” value (PDE4B2) was 5% and the “PDE4C2 % inib at 10 μM” value (PDE4C2) was 7%. For the same molecule, the melting point was 92 to 94 °C.

In the case of `OC(CN1CCOCC1)Cn1ccc(-c2ccc(OC(F)F)c(OC3CCCC3)c2)n1` (stereo not shown) [XXIIa, 1-{3-[3-(cyclopentyloxy)-4-(difluoromethoxy)phenyl]-1H-pyrazol-1-yl}-3-morpholin-4-ylpropan-2-ol], the “PDE4A4 % inib at 10 μM” value (PDE4A4) is reported as 11%, the “PDE4B2 % inib at 10 μM” value (PDE4B2) is reported as 26% and the cytotoxicity at 24 h, 100 µM [1] is reported as 0.1 ± 0.36%. The “DNA damage (γ-H2AX)” value (HTLA cells) was “not observed”, the “d2 (discrimination performance)” value ([2]; 0.0003 mg/kg) was 0.02 (0.05) and the “d2 (discrimination performance)” value ([2]; 0.001 mg/kg) was 0.06 (0.05). For the same molecule, the “memory function (OLT)” value ([2]; 0.003 mg/kg) was “fully enhance memory function”, the “d2 (discrimination performance)” value ([2]; 0.003 mg/kg, p < 0.001 vs zero) was 0.34 (0.05) ^### and the “d2 (discrimination performance)” value ([2]; 0.01 mg/kg) was 0.05 (0.03). For the same molecule, the “memory improvement (OLT)” value ([2]; 0.0003, 0.001 and 0.01 mg/kg) was “did not show any memory improvement at all”, the Alternations % (spatial working memory; 0.001 mg/kg) was 60.86 ^### % and the Alternations % (spatial working memory; 0.003 mg/kg) was 63.54 ^### %. The Alternations % (spatial working memory; 0.01 mg/kg) was 61.88 ^### %, the Time anesthetized ([3]; 0.003 mg/kg) was 112.28% and the Time anesthetized ([3]; 0.03 mg/kg) was 109.52%. For the same molecule, the Time anesthetized ([3]; 0.3 mg/kg) was 107.45%, the emetic-like effects ([3]; 0.003-3.0 mg/kg, one-way ANOVA n.s.) was “does not have emetic-like effects” and the Time anesthetized ([3]; 3.0 mg/kg) was 91.22%. For the same molecule, the “basal cAMP levels” value [4] was “without affecting the basal cAMP levels”, the AUC0-t ([5]; brain) was 2330 ng·h/g and the t1/2 ([5]; brain) was 57 min. The AUC0-t ([5]; plasma) was 861 ng·h/mL, the Cmax ([5]; plasma) was 993 ng/mL and the Tmax ([5]; plasma) was 19.8 min.

For `COc1ccc(-c2ccn(CCC(=O)N3CC(C)OC(C)C3)n2)cc1OC1CCCC1` (stereo not shown) [XXIb, 4-(3-{3-[3-(cyclopentyloxy)-4-methoxyphenyl]-1H-pyrazol-1-yl}propanoyl)2,6-dimethylmorpholine], the “PDE4D3 % inib at 10 μM” value (PDE4D3) was 53%, the IC50 (PDE4D3) was 1800 nM and the “PDE4A4 % inib at 10 μM” value (PDE4A4) was 28%. For the same molecule, the “PDE4B2 % inib at 10 μM” value (PDE4B2) was 28% and the “PDE4C2 % inib at 10 μM” value (PDE4C2) was 42%.

For `COc1ccc(-c2ccn(CC(=O)N3CCOCC3)n2)cc1OC1CCCC1` [XXa, 4-({3-[3-(Cyclopentyloxy)-4-methoxyphenyl]-1H-pyrazol-1-yl}acetyl)morpholine], the “PDE4D1 % inib at 10 μM” value (PDE4D1) was 42%, the “PDE4D2 % inib at 10 μM” value (PDE4D2) was 23% and the “PDE4D3 % inib at 10 μM” value (PDE4D3) was 27%. It also gave a melting point of 131 to 132 °C.

For `COc1ccc(-c2ccn(CC(=O)N3CC(C)OC(C)C3)n2)cc1OC1CCCC1` (stereo not shown) [XXb, 4-({3-[3-(Cyclopentyloxy)-4-methoxyphenyl]-1H-pyrazol-1-yl}acetyl)2,6-dimethylmorpholine], the “PDE4D1 % inib at 10 μM” value (PDE4D1) was 18%, the “PDE4D2 % inib at 10 μM” value (PDE4D2) was 13% and the “PDE4D3 % inib at 10 μM” value (PDE4D3) was 23%. The melting point was 99 to 100 °C.
